In US20110124683A1, “Use of CRTH2 Antagonist Compounds” (Oxagen Limited, priority 2007, published 2011):

What was measured:
[1] = system: Human Th2 cells; assay: Apoptosis challenge test (Annexin V-PE/PI flow cytometry); format: cell-based; conditions: for IC50: Homo sapiens, 100 nM PGD2, absence of IL-2, 16 hrs, read-out: IC50 to the rescuing function of PGD2
Description: Human Th2 cells were treated with 50 U/ml IL-2 or various concentrations of PGD2 in the absence of IL-2 for 16 hrs. The cells were stained with Annexin V-PE/PI and then analysed by FACSArray flow cytometer.
Human Th2 cells were treated in the absence of IL-2 with a medium containing 100 nM PGD2 and various concentrations of CRTH2 antagonistic compounds (Compounds 1, 2, 3, 4 and 5) for 16 hrs. The cells were stained with Annexin V-PE/PI and then analysed by FACSArray flow cytometer.

[2] = system: serum IgE; assay: Measurement of serum IgE in mild to moderate asthmatics; format: in vivo, human
Description: The effect of the CRTH2 antagonist Compound 1 compared to placebo was studied in mild to moderate asthmatics with an FEV1 of 60-80% of predicted and requiring only short acting inhaled β2-adrenergic agonists for symptomatic control.
Blood was collected for measurement of serum IgE at the beginning of the study and after 4 weeks of dosing with Compound 1 or placebo. Total serum IgE was quantified using fluorescent immunoassay using the Phadia CAP system.

[3] = system: human subjects with allergic rhinitis; assay: Vienna Challenge Chamber study (allergen challenge, symptom scores); format: in vivo; conditions: for reduction in total nasal symptom score compared to placebo / reduction in total eye symptom score compared to placebo: oral, both patient groups combined; for reduction in total nasal symptom score compared to placebo: FIG. 1A; for reduction in total eye symptom score compared to placebo: FIG. 1B
Description: The study was a randomised, double blind, placebo controlled, two way crossover evaluation of Compound 1, given orally for eight days. There was a screening period of one week and a washout period of three weeks between the two treatment periods. There was a follow up one week after the last dose of study drug. The group of patients who received the study drug for the first treatment period and placebo for the second was designated group A, while the group of patients who received placebo for the first treatment period and the study drug for the second treatment period was designated group B.
The subjects underwent a complete screening assessment to determine a baseline response to allergens. This screening assessment took place one week prior to the start of dosing. • Subjects commenced dosing with Compound 1 or placebo on Day 1 (visit 2 or visit 5) of each treatment period of the study. […] Subjects took each dose (2 capsules in the morning and 2 capsules in the evening) as soon as they had finished breakfast and their evening meal respectively.
Subjects reported back to the clinic on Day 2 of each treatment period for a 6 hour allergen challenge. The following measurements were obtained: • Total nasal symptom score (TNSS) (obstruction, rhinorrhoea, itch, sneeze) with each symptom scored on a categorical scale from 0 to 3 pre-challenge, every 15 mins from 0 to 6 h post-start of challenge • Eye symptom score (watery eyes, itchy eyes, red eyes) with each symptom scored on a categorical scale from 0 to 3 pre-challenge, every 15 mins from 0 to 6 h post-start of challenge • Other symptoms (cough, itchy throat, itchy ears) with each symptom scored on a categorical scale from 0 to 3 pre-challenge and every 15 mins from 0 to 6 h post-start of challenge
Subjects reported back to the clinic on Day 8 of each treatment period for a 6 hour allergen challenge and the measurements obtained on Day 2 were repeated.
A final follow-up visit was conducted one after the last dose of test article in Treatment Period 2.

[4] = target: T1, CRTH2 receptor (Homo sapiens, UniProt Q9Y5Y4); assay: Calcium mobilisation assay in CHO/CRTH2 cells; format: cell-based; conditions: n=3, read-out: EC50, increase in intracellular Ca2+ mobilisation
T1 construct: expressed in transfected cells; host or cells: Chinese Hamster Ovary (CHO) cells
T1 sequence (Q9Y5Y4 1-395): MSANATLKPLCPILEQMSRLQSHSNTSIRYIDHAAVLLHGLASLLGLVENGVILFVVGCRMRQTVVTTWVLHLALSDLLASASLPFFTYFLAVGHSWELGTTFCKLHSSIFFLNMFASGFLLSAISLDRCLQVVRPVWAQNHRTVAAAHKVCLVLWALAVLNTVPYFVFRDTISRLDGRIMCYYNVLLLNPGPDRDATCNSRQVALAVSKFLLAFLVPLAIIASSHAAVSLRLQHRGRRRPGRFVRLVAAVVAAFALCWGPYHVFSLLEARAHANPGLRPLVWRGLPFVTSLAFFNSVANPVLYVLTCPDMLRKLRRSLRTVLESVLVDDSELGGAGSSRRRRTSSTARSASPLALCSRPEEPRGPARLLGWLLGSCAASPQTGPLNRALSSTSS
Description: Chinese Hamster Ovary cells were transfected with CRTH2 receptors (CHO/CRTH2) and were maintained in culture in a humidified atmosphere at 37° C. (5% CO2) in Minimum Essential Medium (MEM) supplemented with 10% foetal bovine serum, 2 mM glutamine, and 1 mg ml^−1 active G418. The cells were passaged every 2-3 days. For radioligand binding assay, cells were prepared in triple-layer flasks or in 175 cm^2 square flasks (for membrane preparation). For calcium mobilisation assay, cells were grown in a 96 well plate 24 h prior to the assay at a density of 80,000 cells per well.
Cells were seeded onto poly-D-lysine coated 96-well plates at a density of 80,000 cells per well and incubated at 37° C. overnight to allow the cells to adhere. Cells were washed twice with HBSS and incubated for 1 h at 37° C. in 100 μl HBSS and 100 μl calcium-3-dye (Molecular Devices), supplemented with 4 mM probenecid. Changes in fluorescence were monitored over a 50 s time course with agonist addition at 17 s using a Flexstation (Molecular Devices).

In the case of Cc1c(Cc2ccc3ccccc3n2)c2cc(F)ccc2n1CC(=O)O [Compound 1, (5-Fluoro-2-methyl-3-quinolin-2-ylmethyl-indol-1-yl)-acetic acid], the IC50 [1] is reported as less than 100 nM, the “median reduction in IgE at endpoint” value ([2]; after 4 weeks of dosing, p=0.033 vs placebo, Wilcoxon test) is reported as −17.0 IU/mL and the “reduction in serum IgE” value ([2]; after treatment for 4 weeks, FIG. 3) is reported as 41%. For the same compound, the “duration of effect on nasal symptom score after the last treatment” value ([3]; Group A, on placebo after 8 days of drug and three week washout) was “more than 4 weeks”, the “reduction in total nasal symptom score compared to placebo” value ([3]; after 2 days of dosing) was 23% and the “reduction in total eye symptom score compared to placebo” value ([3]; after 2 days of dosing) was 45%. For the same compound, the “reduction in total nasal symptom score compared to placebo” value ([3]; after 8 days of dosing) was 37%, the “reduction in total eye symptom score compared to placebo” value ([3]; after 8 days of dosing) was 61% and the “reduction in Total Nasal Symptom Score (0-6 hr)” value ([3]; remaining 22 days after the last dose) was 36%. The “reduction in Total Nasal Symptom Score (0-6 hr)” value ([3]; remaining 28 days after the last dose) was 38%.
For Cc1c(Cc2ccccc2S(=O)(=O)c2ccccc2)c2cc(F)ccc2n1CC(=O)O [Compound 2, (3-{[2-(Benzenesulfonyl)phenyl]methyl}-5-fluoro-2-methylindol-1-yl)-acetic acid], the IC50 [1] was less than 100 nM.
In the case of Cc1c(Cc2cc3ccccc3cc2S(C)(=O)=O)c2cc(F)ccc2n1CC(=O)O [Compound 3, {5-Fluoro-3-[(3-methanesulfonylnaphthalen-2-yl)methyl]-2-methylindol-1-yl}-acetic acid], the IC50 [1] is reported as less than 100 nM.
Compound Cc1c(Cc2cccnc2S(=O)(=O)c2ccccc2)c2cc(F)ccc2n1CC(=O)O [Compound 4, (3-{[2-(Benzenesulfonyl)pyridin-3-yl]methyl}-5-fluoro-2-methylindol-1-yl)-acetic acid] has an IC50 [1] of less than 100 nM.
With CCCCC[C@H](O)/C=C/[C@H]1C(=O)C[C@H](O)[C@@H]1C/C=C\CCCC(=O)O [PGD2, prostaglandin D2, reference compound] the “effect on apoptosis of Th2 cells” value ([1]; absence of IL-2, 16 hrs) was “anti-apoptotic effect” and the EC50 [4] was 2.4 ± 0.5 nM.
In the case of Cc1c(S(=O)(=O)c2ccc(Cl)cc2)c2cc(F)ccc2n1CC(=O)O [[5-Fluoro-3-(4-chloro-benzenesulfonyl)-2-methyl-indol-1-yl]-acetic acid, reference compound], the IC50 [1] is reported as 204 ± 160 nM.
